Experimental data taken from patent publication US8293481B2, “Biomarkers for chronic vascular dysfunction” (Mayo Foundation for Medical Education and Research, priority 2006, dated 2012).

System: panel of genes listed in b69 and b71 (Tmlhe, Af6, F2, Ywag, PPAR A, Resp18, Edn1, oxytocin and others)
Test: Real-time PCR gene expression in aorta post MI, genes listed together as unchanged
Format: in vivo, rat
Conditions: post MI groups versus uninfarcted control
Source text: After intubation, rats were ventilated continuously (room air) using a small animal ventilator (Model 683, Harvard Apparatus, Holliston, Mass.). A left lateral thoracotomy incision was made along the 5th intercostal space and after the pericardium was opened, the heart was exteriorized using a retention suture placed at the apex. The left anterior descending coronary artery (LAD) was ligated twice using 6-0 prolene suture (Ethicon, Cornelia, Ga.). After chest closure with running 3-0 vicryl suture (Ethicon), rats were put in a recovery chamber with a heating pad and warming light. The post-operative survival rate reached 80%. […] Confirmation of microarray result by quantitative real-time PCR: The remaining RNA from the aortic or portal vein RNA sample was quantitatively converted to single stranded cDNA using the High-Capacity cDNA Archive Kit (Applied Biosystems, Foster City, Calif.). […] The synthesized cDNA was then mixed with TAQMAN® Universal PCR Master Mix (2.5 μl of cDNA+47.5 μl of RNase-free H2O+50 μl of Master Mix) and loaded onto 384-Well micro fluid cards for quantitative real-time PCR (TAQMAN® Low Density Arrays, Applied Biosystems). […] For each cDNA sample, four replicates were analyzed for real-time PCR. […] The array was then run on the Applied Biosystems 7900HT Fast Real-time PCR System, and the data were analyzed using an Applied Biosystems RQ Manager Software (SDS 2.1). […]

C[C@H](CS)C(=O)N1CCC[C@H]1C(=O)O [Captopril, 1-[(2S)-3-mercapto-2-methylpropionyl]-L-proline]
expression of 14 genes (Taok1, Raf1, Fmr1, Rock2, Baat, Gls2, Acot8, Tmlhe, Af6, F2, Ywag, PPAR A, Resp18, Edn1 and oxytocin) (2 weeks post infarction): no significant change | expression of 14 genes (MIR16, Agt, Cxcl12, Seh1h, Cox5, HGF, Tmlhe, Af6, F2, Ywag, PPAR A, Resp18, Edn1 and oxytocin) (4 weeks post infarction): no significant change
